Experimental findings from PubChem BioAssay (NCI) are described below.

Several values for one entry are separate records, joined by “and”; a condition that tells them apart may be missing. Equal entries are not always repeated.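 Where inhibition never reached the appropriate level, the endpoint shown equals the highest concentration tested. Otherwise, values were interpolated linearly from a five-concentration, 48-hour dose response in 96-well plates. GI50 marks 50% less growth. TGI denotes the concentration required for complete inhibition of growth.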 Some results are limits rather than exact numbers.

Among the test systems are SK-MEL-5 melanoma; IGROV1 ovarian; HOP-62 NSCLC; DU-145 prostate; A549 NSCLC; UACC-257 melanoma; KM12 colon; NCI-H522 lung; SF-268 CNS; SNB-19 CNS.
Experiment in all cases: DTP human tumour cell line panel, 48 h

In the case of `COc1cc(/C=C/c2cc(/C=C/c3ccc(O)c(OC)c3)n(C(=O)Nc3ccc(C)cc3C)n2)ccc1O`, the GI50 with SK-MEL-5 melanoma is 0.327 µM; in the test with IGROV1 ovarian, 0.464 µM; with HOP-62 NSCLC, 0.442 µM; with DU-145 prostate it was 0.387 µM; in the test with A549 NSCLC, 0.43 µM; with UACC-257 melanoma, 1.46 µM. The TGI came to 1.26 µM in the test on SK-MEL-5 melanoma; 2.76 µM with IGROV1 ovarian; 1.54 µM with HOP-62 NSCLC; 1.5 µM in the test on DU-145 prostate; 3.2 µM in the test on A549 NSCLC; 5.25 µM with UACC-257 melanoma.
In the case of `CCn1c(SCc2ccc(C)cc2)nnc1-c1nn(-c2ccc(Cl)cc2Cl)c(-c2ccc(Cl)cc2)c1C`, the GI50 in the test on SK-MEL-5 melanoma is 1.4 µM; with IGROV1 ovarian, 2.62 µM; with KM12 colon it was 1.04 µM; in the test on HOP-62 NSCLC it was 2.73 µM; with NCI-H522 lung, 1.35 µM; in the test on DU-145 prostate it was 3.3 µM. Also, the values for the GI50 with SF-268 CNS, in the test on A549 NSCLC and in the test on SNB-19 CNS were 3.06 µM, 2.82 µM and 2.3 µM, respectively. In addition, the TGI in the test on SK-MEL-5 melanoma was 2.74 µM; with IGROV1 ovarian, 15.4 µM; with KM12 colon, 6.31 µM; with HOP-62 NSCLC, 11.9 µM; in the test on NCI-H522 lung it was 5.2 µM; with DU-145 prostate it was 13.8 µM. Moreover, the values for the total growth inhibition concentration (TGI) in the test with SF-268 CNS, with A549 NSCLC and in the test with SNB-19 CNS were 14.9 µM, 11.3 µM and 13.3 µM, respectively.
For `Nc1ccc2cc3ccc(N)cc3nc2c1`, the TGI with SK-MEL-5 melanoma is 2.74 µM and 4.33 µM and 2.93 µM; in the test on IGROV1 ovarian, 7.69 µM [middle of 4 runs]; in the test on KM12 colon, 6.73 µM [middle of 4 runs]; in the test with NCI-H522 lung, 1.31 µM and 2.82 µM and 2.87 µM; in the test on DU-145 prostate, 18.1 µM and 10 µM and 9.47 µM; in the test on SF-268 CNS it was 10.2 µM [middle of 4 runs]. In addition, the TGI in the test on UACC-257 melanoma is 5.03 µM [middle of 4 runs]. The GI50 is 2.07 µM [middle of 4 runs] with IGROV1 ovarian; 631 nM [middle of 4 runs] with KM12 colon; 0.795 µM with HOP-62 NSCLC; 0.295 µM and 0.542 µM and 0.824 µM with NCI-H522 lung; 1.45 µM in the test on DU-145 prostate; 1.12 µM with SF-268 CNS. The GI50 in the test on UACC-257 melanoma was 0.994 µM.
For the compound `COc1cc2[nH]c(C(=O)c3cc(OC)c(OC)c(OC)c3)c(N)c2cc1C#CC1CC1`, the GI50 in the test with SK-MEL-5 melanoma is 1.33 µM; with IGROV1 ovarian it was 6.01 µM; in the test on KM12 colon, 2.51 µM; with HOP-62 NSCLC, 2.64 µM; with DU-145 prostate it was 3.33 µM; with SF-268 CNS, 9.08 µM. The GI50 in the test on A549 NSCLC is 6.65 µM; with UACC-257 melanoma it was more than 100 µM; with SNB-19 CNS, 5.85 µM. The TGI in the test with SK-MEL-5 melanoma is 22.4 µM; in the test on IGROV1 ovarian, more than 100 µM; in the test with KM12 colon it was more than 100 µM; with HOP-62 NSCLC, more than 100 µM; with DU-145 prostate, more than 100 µM; in the test with SF-268 CNS, more than 100 µM. In addition, the total growth inhibition concentration (TGI) in the test with A549 NSCLC, with UACC-257 melanoma and in the test on SNB-19 CNS was more than 100 µM in each case.
In the case of `Cc1ccc(-c2nc3ccc(Cl)cc3c(=O)n2N2C(=O)CSC2c2ccccc2Cl)cc1` (configuration not stated), the GI50 with SK-MEL-5 melanoma is 20 µM; in the test on IGROV1 ovarian, 3.69 µM; with KM12 colon it was more than 100 µM; in the test with HOP-62 NSCLC it was 1.98 µM; in the test with DU-145 prostate it was 58.4 µM; with SF-268 CNS it was 9.97 µM. The GI50 with UACC-257 melanoma was more than 100 µM; in the test with SNB-19 CNS, 5 µM. In addition, the TGI in the test on SK-MEL-5 melanoma was more than 100 µM; in the test with IGROV1 ovarian, more than 100 µM; with KM12 colon it was more than 100 µM; with HOP-62 NSCLC, 5.09 µM; with DU-145 prostate, more than 100 µM; in the test on SF-268 CNS it was more than 100 µM. Besides, the TGI with UACC-257 melanoma and in the test on SNB-19 CNS was more than 100 µM throughout.
`O=C1CCCC[C@H]1[C@H]1CCC[C@@H]([C@H]2CCCCC2=O)C1=O`: the TGI in the test with SK-MEL-5 melanoma, in the test with IGROV1 ovarian, in the test on KM12 colon, in the test with HOP-62 NSCLC, with NCI-H522 lung and in the test with SF-268 CNS was more than 100 µM throughout. The TGI with A549 NSCLC, in the test on UACC-257 melanoma and in the test on SNB-19 CNS was more than 100 µM throughout.
With `S=C1OC2CCCC[C@H]2O1` (some centres not stated), the TGI with SK-MEL-5 melanoma, with IGROV1 ovarian, in the test on KM12 colon, in the test on HOP-62 NSCLC, in the test with NCI-H522 lung and with SF-268 CNS was more than 100 µM each time. Further, the concentration for total growth inhibition (TGI) in the test on A549 NSCLC, in the test on UACC-257 melanoma and in the test with SNB-19 CNS was more than 100 µM throughout.
For the compound `COc1cc(NC(C)CCCN)c2nccc(C)c2c1` (configuration not stated), the concentration for total growth inhibition (TGI) is 82.8 µM in the test with SK-MEL-5 melanoma; 44.6 µM in the test with IGROV1 ovarian; 32.5 µM in the test on KM12 colon; 34 µM with HOP-62 NSCLC; 33.3 µM in the test with NCI-H522 lung; more than 100 µM in the test on DU-145 prostate. Besides, the TGI in the test with SF-268 CNS, in the test with A549 NSCLC and with SNB-19 CNS was more than 100 µM throughout.
Consider `O=C1CC2CCCC23CC2(CCN13)OCCO2` (configuration not stated), for which the TGI with SK-MEL-5 melanoma, in the test on IGROV1 ovarian, with KM12 colon, in the test on HOP-62 NSCLC, with NCI-H522 lung and in the test with SF-268 CNS was more than 100 µM in each case. Further, the TGI in the test with A549 NSCLC, with UACC-257 melanoma and in the test on SNB-19 CNS was more than 100 µM in each case.
Take `O=C1CSC(/C(=N/Nc2ccccc2)c2nc3ccccc3[nH]2)=N1`: the TGI in the test on SK-MEL-5 melanoma was more than 100 µM; in the test on IGROV1 ovarian, more than 100 µM; in the test with KM12 colon it was more than 100 µM; in the test on HOP-62 NSCLC, 67.3 µM; with NCI-H522 lung, more than 100 µM; in the test with SF-268 CNS, more than 100 µM. In addition, the TGI in the test with A549 NSCLC, with UACC-257 melanoma and in the test on SNB-19 CNS was more than 100 µM in each case.
Take `O=C(O)[C@H](NS(=O)(=O)c1ccc([N+](=O)[O-])cc1)c1ccccc1`: the TGI with SK-MEL-5 melanoma, with IGROV1 ovarian, in the test with KM12 colon, in the test on HOP-62 NSCLC, with NCI-H522 lung and with SF-268 CNS was more than 100 µM throughout. Besides, the TGI in the test on A549 NSCLC, in the test on UACC-257 melanoma and with SNB-19 CNS was more than 100 µM in each case.
